Measurements published in patent publication US20250325571A1, “TREATMENT OF BINGE EATING DISORDER USING PSYCHEDELICS” (TRYP Therapeutics Inc., priority 2022, published 2025).

What was measured:
[1] = tested on: 2-deoxy-D-glucose-induced hyperphagia; settings: rats; cited from earlier work
[2] = tested on: human subjects with a Binge eating disorder (BED); assay: Open-label clinical study of oral psilocybin with psychotherapy in BED: eating behavior, body and psychological indicators; type: in vivo; settings: for BMI / Waist circumference / HADS Anxiety Score / HADS Depression Score / Acceptance and Action Questionnaire (AAQ-II) score / Patient Global Impression (PGI-I) score / Binge Eating Scale (BES) score: one subject; for Patient Global Impression (PGI-I) score: scale 1 (very much improved) to 7, baseline set at 4; for Binge Eating Scale (BES) score: BES ranges from 0 to 46
[3] = cited from earlier work
[4] = doses examined in clinical studies; cited from earlier work
tissue phosphatases = settings: in vitro studies; cited from earlier work
[5] = tested on: human subjects with a Binge eating disorder (BED); assay: Psychedelic experience questionnaires (CEQ, MEQ30) one day after dosing; settings: one subject
[6] = tested on: human subjects with a Binge eating disorder (BED); assay: Safety evaluation in the clinical study (adverse events, vital signs); type: in vivo
Procedure: Subjects were instructed to consume a low-fat breakfast at least one hour before reporting to the dosing session, where a single 25 mg oral dose of psilocybin was to be administered (Usona Institute). On dosing day, vital signs, for example, heart rate and BP, were assessed prior to administration of psilocybin and at 30, 60, 90, 120, 180, 240, 300, and 360 minutes post-administration. 12-lead ECGs were performed in triplicate pre-dosing and 60, 120, and 360 minutes after capsule administration. C-SSRS responses were reported prior to and following dosing. […] ACT-based clinical formulation continues as the therapist listens to emergent narratives and notes instances of psychological flexibility and inflexibility, especially present moment awareness, avoidance, and values.
Session monitors were trained to provide support to subjects if they experience acute anxiety, agitation, paranoia, or panic. However, in the event of an AE, a physician was consulted. AEs include psychiatric emergency, hypertension, acute chest pain, and headache. An oral benzodiazepine, for example, lorazepam, was available for treatment of panic or anxiety. An oral antipsychotic, for example, risperidone, was available for treatment of psychosis or severe agitation. If a subject experienced hypertension, a BP of >200 mm Hg systolic or >110 mm Hg diastolic for more than 15 minutes from four consecutive readings, the subject was transferred to the emergency room whether or not they were symptomatic. Labetalol or similar drug was available for treatment of hypertension. If a subject developed new-onset chest pain, the subject was evaluated in-person by the study physician to determine whether the pain was cardiovascular or musculoskeletal, or reflects acute panic/anxiety. Vital signs and ECG were monitored and compared to baseline measurements for evidence of acute ischemia. […]
Vital signs, such as BP and heart rate, were recorded at the dosing session, the day following dosing, and at Weeks 6, 10, and 14 (4, 8, and 12 weeks after the dosing session). […]
Adverse events (AEs) were monitored throughout the study. […]

[7] = rats, cited from earlier work
[8] = across species tested; cited from earlier work
[9] = day 0 (day of administration of psilocybin, 25 mg oral)
[10] = day 0, after dosing (25 mg oral)
[11] = day 27 after single 25 mg oral dose with psychotherapy
[12] = day −42 relative to dosing day (baseline, before psilocybin)

For Clc1cccc(N2CCNCC2)c1 [m-chlorophenylpiperazine], the “Effect on 2-deoxy-D-glucose-induced hyperphagia” value [1] is given as “inhibited”.
In the case of CN(C)CCc1c[nH]c2cccc(OP(=O)(O)O)c12 [psilocybin, 3-[2-(dimethylamino)ethyl]-1H-indol-4-yl]dihydrogen phosphate], the “Persistence of decrease in FBE after administration” value ([2]; 3 subjects for whom data was available) is reported as “over 80 days”, the “Reduction of daily instances of feeling lost control over eating, 4 of 5 subjects” value ([2]; 4 of 5 subjects, four-week post-dosing measurement period) is reported as “greater than 70%” and the “Reduction in daily binge eating episodes from baseline, 4 of 5 subjects” value ([2]; 4 of 5 subjects, four-week post-dosing measurement period, FIG. 3A) is reported as ≥ 75%. For the same compound, the “Reduction of daily instances of feeling lost control over eating, average (Eating Questionnaire Q2)” value ([2]; 5 subjects, four-week post-dosing measurement period, FIG. 3B) was 81.6%, the “Duration of effects on BED symptom improvement” value ([2]; after administration of a single dose) was ≥ 80 days and the “Persistence of decrease in FBE after administration” value ([2]; all 4 subjects for whom data was available) was ≥ 50 days. For the same compound, the “Daily reduction in binge eating episodes from baseline, all subjects” value ([2]; all 5 subjects, four-week post-dosing measurement period) was “at least 60%”, the “Reduction of daily binge eating episodes from baseline, average (Eating Questionnaire Q1)” value ([2]; average across 5 subjects, four-week post-dosing measurement period, single 25 mg oral dose) was 80.4% and the BMI [2, 9] was 43.5 kg/m^2. The Waist circumference [2, 9] was 105.9 cm, the “HADS Anxiety Score” value [2, 10] was 6 and the “HADS Depression Score” value [2, 10] was 6. The “HADS Anxiety Score” value ([2]; day 0, before dosing) was 5, the “HADS Depression Score” value ([2]; day 0, before dosing) was 5 and the “Acceptance and Action Questionnaire (AAQ-II) score” value (“Acceptance and Action Questionnaire” for short) ([2]; day 13 after dosing) was 10. For the same compound, the “HADS Anxiety Score” value ([2]; day 13 after dosing) was 4, the “HADS Depression Score” value ([2]; day 13 after dosing) was 0 and the “Patient Global Impression (PGI-I) score” value ([2]; day 13 after dosing) was 1. For the same compound, the “Acceptance and Action Questionnaire” value ([2]; day 27 after dosing) was 10, the “HADS Anxiety Score” value ([2]; day 27 after dosing) was 2 and the “HADS Depression Score” value ([2]; day 27 after dosing) was 1. For the same compound, the “Patient Global Impression (PGI-I) score” value ([2]; day 27 after dosing) was 1, the BMI [2, 11] was 42.5 kg/m^2 and the Waist circumference [2, 11] was 104.4 cm. The “Binge Eating Scale (BES) score” value ([2]; day 27 after single 25 mg oral dose) was 5, the “Acceptance and Action Questionnaire” value ([2]; day −42 (baseline)) was 13 and the “HADS Anxiety Score” value ([2]; day −42 (baseline)) was 5. The “HADS Depression Score” value ([2]; day −42 (baseline)) was 5, the “Binge Eating Scale (BES) score” value ([2]; day −42 (baseline)) was 13 and the BMI [2, 12] was 42.9 kg/m^2. For the same compound, the Waist circumference [2, 12] was 106.6 cm, the Bioavailability ([3]; oral) was ~50% and the Tolerability [4] was “well tolerated”. The “Most active metabolic organs for initial psilocybin metabolism” value (tissue phosphatases) was “kidneys as being among the most active metabolic organs”, the “Challenging Experience Questionnaire score: Death” value ([5]; CEQ ranges from 0.000 to 1.000) was 0 and the “Challenging Experience Questionnaire score: Fear” value ([5]; CEQ ranges from 0.000 to 1.000) was 0.16. For the same compound, the “Challenging Experience Questionnaire score: Grief” value ([5]; CEQ ranges from 0.000 to 1.000) was 0, the “Challenging Experience Questionnaire score: Insanity” value ([5]; CEQ ranges from 0.000 to 1.000) was 0 and the “Challenging Experience Questionnaire score: Isolation” value ([5]; CEQ ranges from 0.000 to 1.000) was 0. For the same compound, the “Challenging Experience Questionnaire score: Paranoia” value ([5]; CEQ ranges from 0.000 to 1.000) was 0, the “Challenging Experience Questionnaire score: Physical Distress” value ([5]; CEQ ranges from 0.000 to 1.000) was 0.24 and the “Challenging Experience Questionnaire score: Total Score” value ([5]; CEQ ranges from 0.000 to 1.000) was 0.06. For the same compound, the “MEQ30 score: Ineffability” value ([5]; MEQ30 ranges from 0% to 100%) was 80%, the “MEQ30 score: Mystical” value ([5]; MEQ30 ranges from 0% to 100%) was 45.33% and the “MEQ30 score: Positive mood” value ([5]; MEQ30 ranges from 0% to 100%) was 93.33%. The “MEQ30 score: Total Score” value ([5]; MEQ30 ranges from 0% to 100%) was 58.67%, the “MEQ30 score: Transcendence of time and space” value ([5]; MEQ30 ranges from 0% to 100%) was 46.67% and the Drug-related adverse events ([6]; 5 subjects, four-week period following administration) was “No drug-related adverse events were reported”. For the same compound, the “Changes in heart rate or blood pressure” value ([6]; one subject, 25 mg oral dose) was “No substantial changes were observed” and the Adverse events ([6]; one subject, during the administration or the integration sessions) was “No adverse events were observed”.
For CN(C)CCc1c[nH]c2cccc(O)c12 [psilocin], the “Time until psilocin is detectable in plasma” value ([3]; after administration of the parent compound (oral psilocybin)) is listed as ≤ 20 min, the Half-life in blood ([3]; in vivo) is listed as 2 to 3 h and the “Time to maximum plasma levels” value ([7]; post-administration of oral psilocybin) is listed as “approximately 90 minutes”. For the same compound, the “Fraction of total psilocin absorbed from the digestive tract” value ([7]; psilocybin administered orally) was “approximately 50%” and the “Brain regions with highest levels of psilocin” value [8] was “neocortex, hippocampus, and thalamus”.
